Among the test systems are KM12; HL-60; HCT-116; OVCAR-3; SR; LOX IMVI; NCI-H460; TK-10; M14; T47D; SN12C; SF-295; CCRF-CEM; NCI-H522; UO-31; UACC-257; EKVX; 786-0; MDA-MB-435; ACHN.
Common to all, as to assay: growth of human tumour cells (NCI), 48 h

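Cells were grown in 96-well plates and exposed to each compound for 48 hours at five concentrations; endpoints were interpolated linearly between bracketing concentrations, or set to the highest concentration if not reached. GI50 marks 50% less growth.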 Active and inactive are the calls of the source. No stated cut-off is given here; in the data, active = GI50 up to about 1.1 µM and inactive = higher. Some results are limits rather than exact numbers.

In the case of `COc1cc2c(cc1O)CC1c3c(cc(O)c(OC)c3-2)CCN1C` (stereo not given), the GI50 was > 100 µM (inactive) in the assay with KM12; 91.4 µM (inactive) in the assay on HL-60; > 78 µM (inactive) with HCT-116; 98.9 µM (inactive) in the assay on OVCAR-3; > 59.7 µM (inactive) in the assay with SR; > 100 µM (inactive) in the assay with LOX IMVI. Moreover, the GI50 with NCI-H460, in the assay with TK-10, with M14, with T47D, in the assay with SN12C and with SF-295 was > 100 µM (inactive) in each case. Moreover, the GI50 with CCRF-CEM was > 100 µM (inactive); in the assay on NCI-H522, 56.4 µM (inactive); with UO-31, > 100 µM (inactive); with UACC-257, > 100 µM (inactive); with EKVX, > 100 µM (inactive); with 786-0, > 100 µM (inactive). In addition, the GI50 in the assay on MDA-MB-435 and with ACHN was > 100 µM (inactive) throughout.

For the compound `C[C@H]1CCC/C=C/[C@@H]2C[C@H](OC3OC(CO)C(O)C(O)C3O)C[C@H]2[C@H](O)/C=C/C(=O)O1` (stereo not given in full), the GI50 was 31.3 µM (inactive) in the assay with KM12; > 100 µM (inactive) in the assay on HL-60; 77.8 µM (inactive) in the assay with HCT-116; 55.6 µM (inactive) in the assay on OVCAR-3; > 100 µM (inactive) with SR; 36.1 µM (inactive) with LOX IMVI. The GI50 was 78.9 µM (inactive) in the assay on NCI-H460; 91.2 µM (inactive) with TK-10; 46.9 µM (inactive) in the assay on M14; > 100 µM (inactive) in the assay on T47D; > 100 µM (inactive) in the assay on SN12C; 77.6 µM (inactive) in the assay with SF-295. The GI50 in the assay with CCRF-CEM is > 100 µM (inactive); in the assay with NCI-H522, 44 µM (inactive); in the assay with UO-31, 24.4 µM (inactive); in the assay on UACC-257, 26.5 µM (inactive); in the assay with EKVX it was > 100 µM (inactive); in the assay with 786-0 it was 36.7 µM (inactive). Also, the GI50 was 50.6 µM (inactive) with MDA-MB-435 and > 100 µM (inactive) with ACHN.

As to `C=CC(=O)C#CC#CC/C=C\CCCCCCC`, the GI50 with KM12 was > 20.6 µM (inactive); with HL-60, 9.91 µM (inactive); in the assay with HCT-116, > 17.6 µM (inactive); with OVCAR-3, > 20.6 µM (inactive); in the assay with SR it was 5.65 µM (inactive); in the assay with LOX IMVI, 7.76 µM (inactive). Also, the GI50 is > 20.6 µM (inactive) in the assay with NCI-H460; > 20.6 µM (inactive) in the assay on TK-10; > 14.6 µM (inactive) in the assay with M14; > 20.6 µM (inactive) in the assay with T47D; > 20.6 µM (inactive) with SN12C; > 20.6 µM (inactive) in the assay on SF-295. Besides, the GI50 in the assay with CCRF-CEM was 4.9 µM (inactive); in the assay on NCI-H522, 16 µM (inactive); in the assay on UO-31, > 20.6 µM (inactive); in the assay with UACC-257 it was > 20.6 µM (inactive); in the assay on EKVX, > 20.6 µM (inactive); in the assay on 786-0, > 10.1 µM (inactive). For the same compound, the GI50 in the assay on MDA-MB-435 and in the assay on ACHN was > 20.6 µM (inactive) in each case.

Take `COC(=O)c1ccccc1/C=C1\Cc2ccc3c(c2C1=O)CCCC3`: the GI50 in the assay with KM12 is > 100 µM (inactive); with HL-60, > 10 µM (inactive); with HCT-116, > 100 µM (inactive); in the assay on OVCAR-3, > 100 µM (inactive); with SR it was > 100 µM (inactive); with LOX IMVI, > 100 µM (inactive). Moreover, the GI50 in the assay on NCI-H460, in the assay with TK-10, with M14, with T47D, in the assay with SN12C and in the assay with SF-295 was > 100 µM (inactive) throughout. Also, the GI50 with CCRF-CEM, in the assay with NCI-H522, with UO-31, in the assay on UACC-257, with EKVX and in the assay on 786-0 was > 100 µM (inactive) in each case. For the same compound, the GI50 in the assay on MDA-MB-435 and in the assay on ACHN was > 100 µM (inactive) each time.

As to `C/C(=N\O)c1ccc2cc(Br)c3ccccc3c2c1`, the GI50 in the assay on KM12 was 15.6 µM (inactive); with HL-60, 20.7 µM (inactive); in the assay on HCT-116, 11.9 µM (inactive); in the assay with OVCAR-3 it was 16.9 µM (inactive); in the assay with SR it was 24.6 µM (inactive); in the assay with LOX IMVI, 15.6 µM (inactive). In addition, the GI50 is 16.2 µM (inactive) in the assay on NCI-H460; 20.3 µM (inactive) with TK-10; 18.2 µM (inactive) with M14; 22.5 µM (inactive) with T47D; 14.8 µM (inactive) in the assay with SN12C; 15.6 µM (inactive) in the assay on SF-295. Moreover, the GI50 was 17.5 µM (inactive) in the assay on CCRF-CEM; 15.1 µM (inactive) in the assay on NCI-H522; 15.7 µM (inactive) with UO-31; 16.9 µM (inactive) in the assay on UACC-257; 19.1 µM (inactive) in the assay with EKVX; 15.1 µM (inactive) in the assay on 786-0. For the same compound, the GI50 in the assay on MDA-MB-435 is 24.2 µM (inactive); in the assay with ACHN, 23.6 µM (inactive).

In the case of `CCN1CCC(O)(/C=C/c2ccc(C)cc2C)C(C(=O)/C=C/c2ccc(C)cc2C)C1` (stereo not given), the GI50 was 2.33 µM (inactive) with KM12; 3.35 µM (inactive) in the assay with HL-60; 2.22 µM (inactive) in the assay on HCT-116; 2.53 µM (inactive) with OVCAR-3; 2.37 µM (inactive) with SR; 1.76 µM (inactive) with LOX IMVI. Also, the GI50 with NCI-H460 is 1.35 µM (inactive); with TK-10, 1.64 µM (inactive); with M14, 3.55 µM (inactive); in the assay on T47D, 2.39 µM (inactive); in the assay on SN12C, 2.72 µM (inactive); in the assay on SF-295, 2.08 µM (inactive). In addition, the GI50 in the assay with CCRF-CEM is 1.82 µM (inactive); with NCI-H522, 1.84 µM (inactive); in the assay with UO-31, 2.35 µM (inactive); in the assay with UACC-257, 4.99 µM (inactive); in the assay on EKVX it was 2.74 µM (inactive); with 786-0, 1.71 µM (inactive). Moreover, the values for the GI50 in the assay on MDA-MB-435 and in the assay with ACHN were 2.51 µM (inactive) and 1.83 µM (inactive), respectively.

For `CCN(CC)c1ccc(/C=C2/C[N+](C)(C)C/C(=C/c3ccc(N(CC)CC)cc3)C2=O)cc1`, the GI50 with KM12 was 1.23 µM (inactive); in the assay with HL-60, 0.365 µM (active); in the assay on HCT-116, 2.3 µM (inactive); with OVCAR-3 it was 2.12 µM (inactive); with SR it was 0.968 µM (active); in the assay with LOX IMVI, 1.69 µM (inactive). The GI50 is 2.92 µM (inactive) in the assay with NCI-H460; 9.84 µM (inactive) in the assay with TK-10; 2.4 µM (inactive) with M14; 2.4 µM (inactive) in the assay with T47D; 3.17 µM (inactive) in the assay with SN12C; 11.9 µM (inactive) with SF-295. Also, the GI50 was 1.03 µM (active) in the assay on CCRF-CEM; 2.06 µM (inactive) in the assay on NCI-H522; > 58.9 µM (inactive) with UO-31; 2.09 µM (inactive) in the assay with UACC-257; 5.96 µM (inactive) in the assay on EKVX; 3.12 µM (inactive) in the assay on 786-0. The GI50 in the assay on MDA-MB-435 was 1.67 µM (inactive); in the assay with ACHN it was 32 µM (inactive).

As to `CCC1CCC2C3CC=C4CC(OC(C)=O)C(N)CC4(C)C3CCC12C` (stereo not given), the GI50 in the assay on KM12 was 2.96 µM (inactive); in the assay with HL-60, 2 µM (inactive); in the assay on HCT-116 it was 2.46 µM (inactive); in the assay with OVCAR-3, 5.85 µM (inactive); with SR, 2.25 µM (inactive); in the assay on LOX IMVI it was 1.8 µM (inactive). For the same compound, the GI50 with NCI-H460 is 1.87 µM (inactive); with TK-10 it was 2.66 µM (inactive); with M14, 1.82 µM (inactive); in the assay with T47D, 5.78 µM (inactive); in the assay on SN12C, 5.3 µM (inactive); with SF-295 it was 3.26 µM (inactive). The GI50 with CCRF-CEM is 2.47 µM (inactive); in the assay with NCI-H522, 2.51 µM (inactive); with UO-31 it was 5.24 µM (inactive); in the assay with UACC-257 it was 2.17 µM (inactive); in the assay on EKVX it was 4.62 µM (inactive); with 786-0, 2.02 µM (inactive). Moreover, the GI50 in the assay on MDA-MB-435 was 2.35 µM (inactive); in the assay with ACHN it was 7.89 µM (inactive).

`O=S1(=O)CS(=O)(=O)OCCO1`: the GI50 in the assay on KM12 is 51.4 µM (inactive); with HL-60, 11.2 µM (inactive); in the assay with HCT-116, 37.7 µM (inactive); in the assay with OVCAR-3 it was 40.3 µM (inactive); in the assay with SR, 153 µM (inactive); in the assay on LOX IMVI it was 16.8 µM (inactive). Also, the GI50 in the assay on NCI-H460 is 12.9 µM (inactive); in the assay on TK-10 it was 82.8 µM (inactive); in the assay with M14 it was 47.3 µM (inactive); in the assay on T47D, 53.1 µM (inactive); in the assay with SN12C it was 66.1 µM (inactive); in the assay with SF-295 it was 13.2 µM (inactive). In addition, the GI50 in the assay with CCRF-CEM is 18.5 µM (inactive); in the assay with NCI-H522, 48.3 µM (inactive); with UO-31, 61 µM (inactive); in the assay on UACC-257, 50.5 µM (inactive); in the assay with EKVX, 81.8 µM (inactive); in the assay with 786-0 it was 10.9 µM (inactive). Moreover, the GI50 is 44.2 µM (inactive) in the assay on MDA-MB-435 and 15.3 µM (inactive) with ACHN.

Take `COc1cc2ccc1OCc1cccc(n1)COc1ccc(cc1OC)/C=N\c1ccc(cc1)/N=C\2`: the GI50 in the assay on KM12, in the assay on HL-60, in the assay with HCT-116, in the assay with OVCAR-3, with SR and with LOX IMVI was > 100 µM (inactive) each time. The GI50 in the assay on NCI-H460, in the assay on TK-10, with M14, with T47D, in the assay on SN12C and in the assay with SF-295 was > 100 µM (inactive) throughout. Moreover, the GI50 with CCRF-CEM, in the assay with NCI-H522, with UO-31, in the assay on UACC-257, in the assay with EKVX and with 786-0 was > 100 µM (inactive) throughout. The GI50 in the assay on MDA-MB-435 and in the assay with ACHN was > 100 µM (inactive) throughout.

The values above are taken from ChEMBL document CHEMBL1201862, “PubChem BioAssay data set” (2004).
